From US11643419B2, “Compositions and methods for the treatment of xerostomia” (Cellix Bio Private Limited, priority 2016, dated 2023)
Values after ≈ are worked out from the molar mass of the structure shown. Read-outs that look alike come from different tables or passages of the source.

Experiments:
[1] = system: oral pathogenic microorganisms; details: cited from earlier work; for antimicrobial activity (in words): among long-chain fatty acids / against various oral microorganisms
Candida Species [2] = assay: MIC against Candida Species; type: cell-based; details: printed conversion of 0.45 μmoles/ml
C. albicans = details: cited from earlier work
Candida Species [3] = details: cited from earlier work

## CCCCC/C=C\C/C=C\C/C=C\CCCCC(=O)O [GLA, gamma linoleic acid]
[1]
  antimicrobial activity (in words): antimicrobial activities
[1]; listed as 7-linoleic acid
  antimicrobial activity (in words): greatest antimicrobial activity
[1]; listed as gamma linoleic acid
  antimicrobial activity (in words): significant anti-microbial activity
[1]; n-6 fatty acids GLA
  bactericidal at a concentration of: 25 µg/mL

## CCCCCC/C=C\CCCCCCCC(=O)O [palmitoleic acid]
[1]
  antimicrobial activity (in words): greatest antimicrobial activity

## CCCCCCCCCCCCCCCC(=O)O [palmitic acid]
[1]
  antimicrobial activity (in words): greatest antimicrobial activity

## CCCCC/C=C\C/C=C\C/C=C\C/C=C\CCCC(=O)O [arachidonic acid]
[1]
  antimicrobial activity (in words): greatest antimicrobial activity

## CCCCC/C=C\C/C=C\CCCCCCCC(=O)O [Linoleic acid]
Candida Species [2]
  MIC: 0.13 µg/mL (≈ 0.464 µM)
C. albicans
  activity against C. albicans: < 40%
[1]
  antimicrobial activity (in words): greatest antimicrobial activity
[1]; linoleic acid
  bactericidal at a concentration of: 25 µg/mL
Candida Species [3]
  MIC: 0.45 µmol/mL (≈ 126 µg/mL)
